This is an account of results in patent US20260274886A1, “CRYSTALLINE FORMS OF A FARNESOID X RECEPTOR AGONIST” (ALFASIGMA S.P.A., priority 2023, published 2026).

Data set [1] is described as follows: Dynamic vapour sorption (DVS) analysis. It is filed as physicochemical. As for the experimental part:
Approximately 10-20 mg of sample is placed into a mesh vapour sorption balance pan and loaded into a DVS Advantage dynamic vapour sorption balance by Surface Measurement Systems. The sample is subjected to a ramping profile from 40-90% relative humidity (RH) at 10% increments, maintaining the sample at each step until a stable weight has been achieved (dm/dt 0.004%, minimum step length 30 minutes, maximum step length 500 minutes) at 25° C. After completion of the sorption cycle, the sample is dried using the same procedure to 0% RH and then a second sorption cycle back to 40% RH. Two cycles are performed. The weight change during the sorption/desorption cycles are plotted, allowing for the hygroscopic nature of the sample to be determined. XRPD analysis is then carried out on any solid retained.
A dynamic vapour sorption analysis of Crystalline Form 1 is in FIG. 4. […] There is a loss of 1.9 wt. % on the first desorption cycle. There is an uptake of 1.1 wt. % (0.3 equivalents water) on the second sorption between 0 and 90% RH, followed by a loss of about 1.25 wt. % on desportion. There is a loss of 1.2 wt. % difference from the input to the end of the experiment. […] Crystalline Form 1 remains as the bulk form.

A short description of data set [2]: Form change on drying under vacuum (XRPD wet vs dry, thermal cycling experiments). The note with it: dried at ambient temperature under vacuum for 2 h. It counts as physicochemical.
Description: Additional solvent is added if necessary. Mixture is thermally cycled between 4° and 5° C. with 0.1° C./min cooling and heating rates and 1 h holds at 40 and 5° C. After 21 h cycling, additional solvent is added if thick slurry is observed and anti-solvent (heptane) is added if clear solution is observed. After a further 26 h thermal cycling, observations are recorded at 5° C. Material is isolated by centrifugation if necessary and analyzed by XRPD. […] XRPD analysis is repeated.
Where [3] appears, read: DVS, 25° C., between 0 and 90% RH.

Read-outs that look alike come from different tables or passages of the source.

With `CC[C@H]1[C@@H](O)[C@@H]2[C@H]([C@@H](O)C[C@]3(C)[C@@H]([C@H](C)CCC(=O)O)CC[C@@H]23)[C@@]2(C)CC[C@@H](O)C[C@@H]12` [Crystalline Form 1, 3α,7α,11β-trihydroxy-6α-ethyl-5β-cholan-24-oic acid], in data set [1] (setting [3]), the “uptake on the second sorption” value amounted to 1.1 wt. % and the “uptake on the second sorption, equivalents water” value is on record as 0.3 equivalents water. In addition, the “loss on the first desorption cycle” value in data set [1] (DVS, 25° C., first desorption cycle) is 1.9 wt. %. Moreover, the “mass change on the first sorption cycle” value in data set [1] (DVS, 25° C., first sorption cycle) is listed as “initial mass loss on the first sorption cycle before a slight uptake is observed”. The “loss on desorption after second sorption” value in data set [1] (DVS, 25° C., second desorption) is on record as “about 1.25 wt. %”. Further, in data set [1] (DVS, 25° C., two cycles), the “loss, difference from the input to the end of the experiment” value came to 1.2 wt. %. In addition, in data set [1] (solid retained after DVS), the “XRPD post-DVS” value was “slight loss of crystallinity”. For the same molecule, where the note is “7 day stability, 40° C./75% RH”, the “HPLC-CAD Purity (% w/w)” value was 97.1 % w/w. Further, where the note is “7 day stability, 80° C.”, the “HPLC-CAD Purity (% w/w)” value is reported as 96.4 % w/w. Where the note is “7 day stability, Ambient Light”, the “HPLC-CAD Purity (% w/w)” value came to 97.5 % w/w and the XRPD is given as 1^. For the setting “summary statement referring to DVS and storage data in Example 6”, the “stability under stressed conditions” value is given as “stable under stressed conditions”.

For `CC[C@H]1[C@@H](O)[C@@H]2[C@H]([C@@H](O)C[C@]3(C)[C@@H]([C@H](C)CCC(=O)O)CC[C@@H]23)[C@@]2(C)CC[C@@H](O)C[C@@H]12` [Crystalline Form 2, 3α,7α,11β-trihydroxy-6α-ethyl-5β-cholan-24-oic acid], in data set [2], the form after drying entry was “converts to Form 3”.
